Measurements taken from US20080070892A1, “TREATING PAIN, DIABETES, AND DISORDERS OF LIPID METABOLISM” (priority 2006, published 2008).

Tests used:
[1] = biological target: T1, human CaV3.2 (Homo sapiens, UniProt O95180); experiment: IonWorks screen for hCaV3.2 (Cav3.2 Ionworks assay); assay type: cell-based; details: read-out: IW hCav3 2 IC50
T1 construct: expressed in transfected cells
Text: Functional evaluation of voltage-gated ion channels was used to determine potency and/or single concentration efficacy of proprietary compounds. Two different methodologies were used to measure ion currents: the IonWorks HT (Molecular Devices, Sunnyvale, Calif.) a moderate throughput voltage clamp screening platform that utilizes 96-well compound plates and conventional whole cell patch clamp for lower throughput, higher fidelity determinations.
HEK cells were transiently transfected and then selected for stable heterologous expression of different channel proteins of interest. Calcium channel cell lines expressed a resting potassium current, human Kir2.1, and the pore forming α-subunit of voltage-gated calcium channels. In the case of CaV2.1 cells the auxiliary subunit, β2a, was also expressed. Calcium channel lines that were used to generate the data in this document expressed either human CaV3.2, rat CaV3.2 or human CaV2.1. The human heart sodium channel, hNaV1.5, was stably expressed in CHO cells. These cells were licensed from the University of Pennsylvania.
Cell lines were grown at 37° C. in humidified incubators, equilibrated with 95% air/5%0 CO2 CHO cells were grown in Ham's F-12 medium. HEK cells were grown in DMEM. All media were supplemented with 10% heat-inactivated fetal bovine serum, penicillin, streptomycin and appropriate selection antibiotics (zeocin, geneticin and/or hygromycin). Cells were passaged when 80% confluent or less.
IonWorks Screen for hCaV3.2
The extracellular buffer for experiments using this instrument contained the following (mM) (NaCl 125, HEPES 10, KCl 5.4, CaCl2 1.8, MgCl2 1.8, 0.2 BaCl2 pH 7.35). The IonWorks uses amphotericin to gain electrical access to the cell interior. The internal solution contained (mM concentrations): 130 K-gluconate, 20 KCl, 5 HEPES-KOH (pH 7.25), 2 CaCl2, 1 MgCl2. Amphotericin added at 5 mg in 65 ml when present (in 650 μl DMSO). All internal and external solutions for this experiment contain 1% DMSO. Cells were acutely trypsinized from a T-75 flask and resuspended in extracellular buffer at a density of 2×10^5 cells/ml.
Experiments were performed at room temperature. Transmembrane potential was held at −100 mV for 5 seconds prior to running the voltage protocol. During this time leak currents were measured during a step to −110 mV (200 milliseconds). T-type calcium currents were activated with a 250 millisecond step to −20 mV. This depolarization step was repeated for a total of 10 pulses with an interpulse interval of 1 second. Data were excluded if the following acceptance criteria were not met: total resistance for the pre-compound scan >65 MΩ, pre-compound current >250 pA, post compound total resistance >50 MΩ.
T-type currents were measured as the peak inward current minus the current at the end of the 250 msec step to −20 mV. After the recoding configuration was established there was a pre-compound measurement of current amplitude. Compound was added as a 3× solution containing 1% DMSO. After incubation with compound for 10 minutes currents were measured again. The current amplitude after compound addition was divided by the pre-compound current for pulse 10 to determine the fraction of current remaining after compound addition. For each compound, 8-point concentration-effect relationships were measured with ½ log serial dilutions.

[2] = biological target: T2, human-SP9215 (GPR119) (Homo sapiens, UniProt Q8TDV5); experiment: GPR119 screening assay (LANCE cAMP); assay type: cell-based; details: HEK 293 cells stably transfected with human GPR119, read-out: GPR 119 cAMP IC50
T2 construct: expressed in transfected cells
T2 sequence (Q8TDV5 1-335): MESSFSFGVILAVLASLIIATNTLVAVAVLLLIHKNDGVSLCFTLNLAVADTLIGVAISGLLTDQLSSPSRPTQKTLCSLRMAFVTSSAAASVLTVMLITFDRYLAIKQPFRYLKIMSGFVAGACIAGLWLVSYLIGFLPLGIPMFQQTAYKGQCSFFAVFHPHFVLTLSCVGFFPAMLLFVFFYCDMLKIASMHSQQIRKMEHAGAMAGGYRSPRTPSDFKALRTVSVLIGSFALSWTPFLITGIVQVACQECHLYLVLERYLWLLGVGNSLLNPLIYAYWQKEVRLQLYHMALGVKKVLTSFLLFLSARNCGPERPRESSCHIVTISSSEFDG
Protocol: • +100 mg BSA (MP Biomedicals faction V, #103703)=0.1% • +500 ul 1M HEPES (Cellgro #25-060-CI)=5 mM • +75 ul RO-20 (Sigma B8279; 20 mM stock in DMSO stored in aliquots at −20 C)=15 uM • (made fresh daily) B84 (N-[4-(methylsulfonyl)phenyl]-5-nitro-6-[4-(phenylthio)-1-piperidinyl]-4-pyrimidinamine, see WO 2004/065380). A 10 mM stock solution of the test compound in DMSO was prepared, aliquoted and stored at −20 C. For Totals—Dilute 1:33.3 in DMSO then 1:50 in Stimulation Buffer=6 uM in 2% DMSO (=3 uM B84 and 1% DMSO final). For Dose Response Curve—3 ul stock+7 ul DMSO+490 ul Stim Buffer=60 uM in 2% DMSO (=30 uM B84 and 1% DMSO final). (made fresh daily). Cell Line: Human clone 3. HEK 293 cells stable transfected with human-SP9215 (GPR119)/pcDNA3.1 and also stable for pCRELuc, Stratagene. Cells are maintained in DMEM containing 10% FBS (invitrogen #02-4006Dk, lot #1272302, heat inactivated), 1×MEM, 1× Pen/Strep, 0.1 mg/ml Hygromycin 6, and […] G418. Cells are split 1:8 twice per week. cAMP Kit: LANCE™ cAMP 384 kit, Perkin Elmer #AD0263 Compound Dilutions: • Add DMSO to vials containing compounds to yield a 1 mg/ml solution. • 1. Dilute compounds to 60 μM in Stimulation buffer. Make ½ log dilutions into Stimulation buffer containing 2% DMSO using the epMotion robot. 10 point dose response curve 1 nM to 30 uM. • 2. Compounds are run in quadruplicate, 2 separate dilutions for each, sets 1 and 1a. Assay Procedure: • 1. The afternoon before the assay, replace the media in the flask of Human clone 3 cells with Optimem. (Gibco #11058-021) NOTE: cells should be in culture 6-8 days. • 2. Next morning, pipette the cells gently off the flask using HBSS (RT). • 3. Pellet the cells (1300 rpm, 7 min, RT) and resuspend in Stimulation Buffer at […] (=5-8,000 cell/6 ul). Add 1:100 dilution of Alexa Fluor 647-anti cAMP antibody (provided in the kit) directly to the cell suspension. • 4. Into white 384-well plates (Matrix) add 6 ul of 2× B84, cmpds or stim buffer for nsb. They all contain 2% DMSO (=1% DMSO final). • 5. Add 6 ul of the cell suspension to the wells. Incubate 30 minutes RT. • 6. For the std curve add 6 ul cAMP std solution diluted in Stim Buffer+2% DMSO according to kit directions (1000-3 nM). Add 6 ul of 1:100 anti-cAMP dilution in Stim Buffer to std wells. • 7. Make Detection Mix according to kit instructions and incubate 15 min RT. • 8. Add 12 ul Detection Mix to all the wells. Mix gently by tapping and incubate 2-3 hrs RT. • 9. Read on the Envision under the protocol “Lance/Delphia cAMP” • 10. Values (nM) for each sample are determined by extrapolation from the std curve. % Control, Fold and EC50 (Control=3 uM B84) are determined for each compound, averaging sets 1 and 1a. Results

T1 sequence (O95180 whole entry): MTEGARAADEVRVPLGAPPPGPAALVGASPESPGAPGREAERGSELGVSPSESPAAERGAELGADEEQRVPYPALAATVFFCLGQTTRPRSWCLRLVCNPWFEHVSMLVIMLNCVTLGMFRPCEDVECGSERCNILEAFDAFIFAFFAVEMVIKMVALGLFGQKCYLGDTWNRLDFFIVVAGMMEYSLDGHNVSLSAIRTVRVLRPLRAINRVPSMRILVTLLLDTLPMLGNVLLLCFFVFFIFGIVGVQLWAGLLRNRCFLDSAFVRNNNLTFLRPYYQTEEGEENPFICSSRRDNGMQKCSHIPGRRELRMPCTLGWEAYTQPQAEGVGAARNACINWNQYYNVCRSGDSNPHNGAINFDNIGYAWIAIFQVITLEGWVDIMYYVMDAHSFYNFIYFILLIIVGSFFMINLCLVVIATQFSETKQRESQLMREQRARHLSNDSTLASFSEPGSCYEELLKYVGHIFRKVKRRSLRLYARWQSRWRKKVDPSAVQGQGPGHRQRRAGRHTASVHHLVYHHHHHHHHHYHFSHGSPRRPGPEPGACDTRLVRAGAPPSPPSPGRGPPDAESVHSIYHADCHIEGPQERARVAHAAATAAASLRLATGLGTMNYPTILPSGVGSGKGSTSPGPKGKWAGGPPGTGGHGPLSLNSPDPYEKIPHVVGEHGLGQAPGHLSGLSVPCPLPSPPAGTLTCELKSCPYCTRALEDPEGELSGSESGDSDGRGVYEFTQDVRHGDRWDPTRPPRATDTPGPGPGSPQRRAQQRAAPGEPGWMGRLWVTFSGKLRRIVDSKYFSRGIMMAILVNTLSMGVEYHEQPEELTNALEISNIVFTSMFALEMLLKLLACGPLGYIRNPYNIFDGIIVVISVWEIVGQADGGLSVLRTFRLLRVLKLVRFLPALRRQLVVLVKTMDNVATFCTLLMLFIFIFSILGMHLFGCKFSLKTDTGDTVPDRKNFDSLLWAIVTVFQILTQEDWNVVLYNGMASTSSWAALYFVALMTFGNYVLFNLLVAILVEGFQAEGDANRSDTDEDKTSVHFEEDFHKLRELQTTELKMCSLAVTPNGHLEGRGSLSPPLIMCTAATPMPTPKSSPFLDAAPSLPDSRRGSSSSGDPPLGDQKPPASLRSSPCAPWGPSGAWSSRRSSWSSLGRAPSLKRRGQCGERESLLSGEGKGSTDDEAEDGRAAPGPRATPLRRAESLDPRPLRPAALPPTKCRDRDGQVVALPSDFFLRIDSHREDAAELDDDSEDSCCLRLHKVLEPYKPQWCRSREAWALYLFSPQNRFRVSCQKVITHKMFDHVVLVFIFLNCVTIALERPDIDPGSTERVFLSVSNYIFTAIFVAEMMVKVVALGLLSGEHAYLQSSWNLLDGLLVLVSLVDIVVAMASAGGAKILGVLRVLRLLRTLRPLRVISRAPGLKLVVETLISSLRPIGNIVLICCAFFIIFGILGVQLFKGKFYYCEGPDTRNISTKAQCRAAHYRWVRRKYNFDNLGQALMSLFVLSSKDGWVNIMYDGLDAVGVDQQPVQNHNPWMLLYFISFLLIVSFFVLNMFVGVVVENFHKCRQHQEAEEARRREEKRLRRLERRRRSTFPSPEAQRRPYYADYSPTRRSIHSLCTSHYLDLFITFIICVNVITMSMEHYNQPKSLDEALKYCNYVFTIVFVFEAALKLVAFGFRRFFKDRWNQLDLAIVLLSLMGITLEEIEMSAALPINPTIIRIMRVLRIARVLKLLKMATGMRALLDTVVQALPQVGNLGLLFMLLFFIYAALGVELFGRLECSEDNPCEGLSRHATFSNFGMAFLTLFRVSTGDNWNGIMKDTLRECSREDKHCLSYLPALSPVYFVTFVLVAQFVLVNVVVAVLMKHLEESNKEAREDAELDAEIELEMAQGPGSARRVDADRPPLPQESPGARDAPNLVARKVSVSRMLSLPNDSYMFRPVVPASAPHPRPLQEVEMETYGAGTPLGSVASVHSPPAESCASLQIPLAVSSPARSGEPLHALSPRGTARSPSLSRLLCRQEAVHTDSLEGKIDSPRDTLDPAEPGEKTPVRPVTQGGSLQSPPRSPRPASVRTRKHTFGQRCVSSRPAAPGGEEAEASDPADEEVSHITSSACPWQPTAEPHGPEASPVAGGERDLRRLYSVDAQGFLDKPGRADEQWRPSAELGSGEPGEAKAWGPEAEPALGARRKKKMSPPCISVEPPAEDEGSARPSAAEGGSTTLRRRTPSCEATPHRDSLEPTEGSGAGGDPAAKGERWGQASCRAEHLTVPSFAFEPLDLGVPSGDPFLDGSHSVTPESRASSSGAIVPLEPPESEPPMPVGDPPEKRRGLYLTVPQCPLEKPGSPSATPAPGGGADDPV

SMILES	IC50 [1]	IC50 [2]
COC(=O)[C@H](CC(C)C)NC(=O)N1CCC2(CC1)CN(CC(C)C)C2c1ccc(Cl)cc1 (stereo partly shown)	23 nM	
CC[C@H](C)[C@H](NC(=O)N1CCC2(CC1)CN(CC(C)C)C2c1ccc(Cl)cc1)C(=O)OC (stereo partly shown)	26 nM	
COC(=O)[C@@H](NC(=O)N1CCC2(CC1)CN(CC(C)C)C2c1ccc(Cl)cc1)C(C)C (stereo partly shown)	32 nM	
CC[C@H](C)[C@H](NC(=O)N1CCC2(CC1)CN(c1ccc(F)cc1)C2c1ccc(Cl)cc1)C(=O)OC (stereo partly shown)	77 nM	
CC(C)CN1CC2(CCN(C(=O)c3ccc4c(c3)OCCCO4)CC2)C1c1ccc(Cl)cc1 (stereo not shown)		2620 nM
O=C(c1ccc2[nH]cnc2c1)N1CCC2(CC1)CN(Cc1ccccc1Cl)C2c1ccccc1 (stereo not shown)		2980 nM
CC(C)N1CC2(CCN(C(=O)Nc3cc(F)cc(F)c3)CC2)C1c1ccc(Cl)cc1 (single isomer, unassigned)	32 nM	
CC(C)N1CC2(CCN(C(=O)Nc3ccc(F)cc3)CC2)C1c1ccc(Cl)cc1 (single isomer, unassigned)	69 nM	

Results, then the molecule that gave them:

IC50 [1]	IC50 [2]	SMILES
65 nM		COC(=O)[C@H](CC(C)C)NC(=O)N1CCC2(CC1)CN(C(C)C)C2c1ccc(Cl)cc1 (stereo partly shown)
376 nM		O=C(C1CCCCC1)N1CCC2(CC1)CN(C(=O)C1(c3ccc(Cl)cc3)CCCC1)C2c1ccccc1 (stereo not shown)
	1640 nM	O=C(c1ccc2c(c1)OCCCO2)N1CCC2(CC1)CN(c1ccc(F)cc1)C2c1ccc(Cl)cc1 (stereo not shown)
	1920 nM	CC(C)CN1CC2(CCN(C(=O)c3ccc4c(c3)OCCCO4)CC2)C1c1ccccc1 (stereo not shown)
	2770 nM	O=C(c1ccc2c(c1)OCCCO2)N1CCC2(CC1)CN(Cc1ccccc1Cl)C2c1ccc(Cl)cc1 (stereo not shown)
